“And” between values parts separate entries of the source, which are not always exact repeats. Identical values can stand only once. Inconclusive results and toxic doses are left out.
Test system: P388 leukemia ip, CD2F1 mice, survival T/C
Assay: NCI In Vivo Anticancer Drug Screen. Data for tumor model P388 Leukemia (intraperitoneal) in CD2F1 (CDF1) mice
Settings: endpoint: median survival time, higher = longer survival
Method in brief: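 Mice carrying the transplanted tumor received test compound or vehicle. Survival was recorded in each group, and the value is the treated-group measurement divided by that of the vehicle-treated control group.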

[1] = dose: 50.0 mg/kg/injection, schedule: Q01DX005 (ip), vehicle: saline with Tween-80
[2] = dose: 50.0 mg/kg/injection, schedule: Q01DX009 (ip), vehicle: saline
[3] = dose: 100.0 mg/kg/injection, schedule: Q01DX009 (ip), vehicle: saline
[4] = dose: 200.0 mg/kg/injection, schedule: Q01DX009 (ip), vehicle: saline
[5] = dose: 100.0 mg/kg/injection, schedule: Q01DX005 (ip), vehicle: saline with Tween-80
[6] = dose: 200.0 mg/kg/injection, schedule: Q01DX005 (ip), vehicle: saline with Tween-80
[7] = dose: 50.0 mg/kg/injection, schedule: Q01DX009 (ip), vehicle: Klucel (hydroxypropylcellulose) (HPC)

`C=C(C)C1Cc2c(cc(OC)c3c(=O)c4cccc(O)c4oc23)O1` (stereo unspecified) was tested, and the T/C (dose: 2.5 mg/kg/injection, schedule: Q01DX009 (ip), vehicle: distilled water + alcohol) was 104 % of control, the T/C (dose: 5.0 mg/kg/injection, schedule: Q01DX009 (ip), vehicle: distilled water + alcohol) was 101 % of control and the T/C (dose: 10.0 mg/kg/injection, schedule: Q01DX009 (ip), vehicle: distilled water + alcohol) was 99 % of control.
For `OCCCC1CCCCN1` (stereo unspecified), the T/C (dose: 50.0 mg/kg/injection, schedule: Q01DX001 (ip), vehicle: saline) was 107 % of control and the T/C (dose: 200.0 mg/kg/injection, schedule: Q01DX001 (ip), vehicle: saline) was 100 % of control.
With `CCOC(=O)c1ccc(NC(=O)c2ccccc2)cc1` the T/C (dose: 50.0 mg/kg/injection, schedule: Q01DX001 (ip), vehicle: Klucel (hydroxypropylcellulose) (HPC)) was 96 % of control, the T/C (dose: 100.0 mg/kg/injection, schedule: Q01DX001 (ip), vehicle: Klucel (hydroxypropylcellulose) (HPC)) was 90 % of control and the T/C (dose: 200.0 mg/kg/injection, schedule: Q01DX001 (ip), vehicle: Klucel (hydroxypropylcellulose) (HPC)) was 92 % of control. The T/C (dose: 400.0 mg/kg/injection, schedule: Q01DX001 (ip), vehicle: Klucel (hydroxypropylcellulose) (HPC)) was 95 % of control.
With `[Cu+2].[O-]/C(=N\N=C/c1ccco1)c1ccccc1O.[O-]/C(=N\N=C/c1ccco1)c1ccccc1O.[OH3+].[OH3+]` the T/C (dose: 400.0 mg/kg/injection, schedule: Q04DX002 (ip), vehicle: saline with Tween-80) was 93 % of control.
`FC(F)(F)C1=C(C(F)(F)F)SP(Cl)(Cl)(c2ccccc2)S1` was tested, and the T/C (dose: 12.5 mg/kg/injection, schedule: Q04DX003 (ip), vehicle: saline with Tween-80) was 105 % of control, the T/C (dose: 25.0 mg/kg/injection, schedule: Q04DX003 (ip), vehicle: saline with Tween-80) was 105 % of control and the T/C (dose: 50.0 mg/kg/injection, schedule: Q04DX003 (ip), vehicle: saline with Tween-80) was 105 % of control. For the same compound, the T/C (dose: 75.0 mg/kg/injection, schedule: Q04DX003 (ip), vehicle: saline with Tween-80) was 101 % of control.
In the case of `OC1CC2CCC(N2)C1c1ccccc1` (stereo unspecified), the T/C (dose: 12.5 mg/kg/injection, schedule: Q01DX005 (ip), vehicle: saline with Tween-80) is reported as 94 % of control, the T/C (dose: 25.0 mg/kg/injection, schedule: Q01DX005 (ip), vehicle: saline with Tween-80) is reported as 86 % of control and the T/C [1] is reported as 101 % of control and 93 % of control.
With `CCC(=O)OC1C(OC2C(C)C(OC3CC(C)(OC)C(O)C(C)O3)C(C)C(=O)OC(CC)C(C)(O)C(O)C(C)C(=O)C(C)CC2(C)O)OC(C)CC1N(C)C` (stereo unspecified) the T/C [2] was 105 % of control, the T/C [3] was 97 % of control and the T/C [4] was 92 % of control.
For `COCCCn1c(-c2ccc(Cl)cc2)nn2c(=O)c3ccccc3nc2c1=O`, the T/C [2] was 97 % of control, the T/C [3] was 92 % of control and the T/C [4] was 92 % of control.
With `OCc1ccc(Cl)cc1O` the T/C (dose: 12.5 mg/kg/injection, schedule: Q01DX009 (ip), vehicle: distilled water + Tween-80) was 100 % of control, the T/C (dose: 25.0 mg/kg/injection, schedule: Q01DX009 (ip), vehicle: distilled water + Tween-80) was 100 % of control and the T/C (dose: 50.0 mg/kg/injection, schedule: Q01DX009 (ip), vehicle: distilled water + Tween-80) was 105 % of control. The T/C (dose: 100.0 mg/kg/injection, schedule: Q01DX009 (ip), vehicle: distilled water + Tween-80) was 107 % of control and the T/C (dose: 200.0 mg/kg/injection, schedule: Q01DX009 (ip), vehicle: distilled water + Tween-80) was 116 % of control.
For `O=C(NCc1ccccc1)c1ccccc1NS(=O)(=O)c1ccc(Cl)c(Cl)c1`, the T/C [1] was 96 % of control, the T/C [5] was 87 % of control and the T/C [6] was 93 % of control.
For `ClC(Cl)C1OCCCO1`, the T/C (dose: 60.0 mg/kg/injection, schedule: Q01DX005 (ip), vehicle: saline) was 100 % of control, the T/C (dose: 120.0 mg/kg/injection, schedule: Q01DX005 (ip), vehicle: saline) was 99 % of control and the T/C (dose: 240.0 mg/kg/injection, schedule: Q01DX005 (ip), vehicle: saline) was 96 % of control.
With `CS(=O)(=O)Nc1ccc(Nc2c3ccccc3nc3cc(Cl)ccc23)cc1` the T/C (dose: 100.0 mg/kg/injection, schedule: Q04DX003 (ip), vehicle: saline) was 181 % of control and the T/C (dose: 200.0 mg/kg/injection, schedule: Q04DX003 (ip), vehicle: saline) was 240 % of control.
In the case of `COc1ccc(OC)c(NC(=O)Sc2c(Cl)c(Cl)nc(Cl)c2Cl)c1`, the T/C [7] is reported as 120 % of control.
With `COc1cc2c(cc1Oc1ccc(OC)c3c1CC1c4c(cc(OC)c(OC)c4-3)CCN1C)CC1c3c(cc(OC)c(OC)c3-2)CCN1C` (stereo unspecified) the T/C (dose: 20.0 mg/kg/injection, schedule: Q01DX009 (ip), vehicle: water) was 94 % of control, the T/C (dose: 40.0 mg/kg/injection, schedule: Q01DX009 (ip), vehicle: water) was 101 % of control and the T/C (dose: 80.0 mg/kg/injection, schedule: Q01DX009 (ip), vehicle: water) was 93 % of control. The T/C (dose: 160.0 mg/kg/injection, schedule: Q01DX009 (ip), vehicle: water) was 93 % of control.
In the case of `Fc1ccc(NP(=S)(Nc2ccc(F)cc2F)Nc2ccc(F)cc2F)c(F)c1`, the T/C (dose: 25.0 mg/kg/injection, schedule: Q04DX002 (ip), vehicle: saline with Tween-80) is reported as 101 % of control, the T/C (dose: 50.0 mg/kg/injection, schedule: Q04DX002 (ip), vehicle: saline with Tween-80) is reported as 104 % of control and the T/C (dose: 100.0 mg/kg/injection, schedule: Q04DX002 (ip), vehicle: saline with Tween-80) is reported as 102 % of control and 105 % of control.
With `CC(=O)OCC1OC(n2c(Br)nc3c(=O)[nH]c(N)nc32)C(OC(C)=O)C1OC(C)=O` (stereo unspecified) the T/C [1] was 102 % of control, the T/C [5] was 104 % of control and the T/C [6] was 107 % of control.
`C=C1CC(c2ccc(S(=O)(=O)N3CCOCC3)cc2)OC1=O` (stereo unspecified) was tested, and the T/C (dose: 25.0 mg/kg/injection, schedule: Q01DX005 (ip), vehicle: Klucel (hydroxypropylcellulose) (HPC)) was 104 % of control, the T/C (dose: 50.0 mg/kg/injection, schedule: Q01DX005 (ip), vehicle: Klucel (hydroxypropylcellulose) (HPC)) was 120 % of control and the T/C (dose: 100.0 mg/kg/injection, schedule: Q01DX005 (ip), vehicle: Klucel (hydroxypropylcellulose) (HPC)) was 113 % of control.
With `COc1ccc(C(=O)c2ccccc2)cc1` the T/C [7] was 105 % of control, the T/C (dose: 100.0 mg/kg/injection, schedule: Q01DX009 (ip), vehicle: Klucel (hydroxypropylcellulose) (HPC)) was 108 % of control and the T/C (dose: 200.0 mg/kg/injection, schedule: Q01DX009 (ip), vehicle: Klucel (hydroxypropylcellulose) (HPC)) was 102 % of control. For the same compound, the T/C (dose: 400.0 mg/kg/injection, schedule: Q01DX009 (ip), vehicle: Klucel (hydroxypropylcellulose) (HPC)) was 98 % of control.
In the case of `CC(=O)Oc1ccc2c3c1O[C@H]1[C@@H](OC(C)=O)C=C[C@H]4[C@@H](C2)N(C)CC[C@@]341`, the T/C (dose: 0.39 mg/kg/injection, schedule: Q01DX009 (ip), vehicle: saline) is reported as 100 % of control, the T/C (dose: 0.78 mg/kg/injection, schedule: Q01DX009 (ip), vehicle: saline) is reported as 101 % of control and the T/C (dose: 1.56 mg/kg/injection, schedule: Q01DX009 (ip), vehicle: saline) is reported as 94 % of control. For the same compound, the T/C (dose: 3.12 mg/kg/injection, schedule: Q01DX009 (ip), vehicle: saline) was 95 % of control, the T/C (dose: 6.25 mg/kg/injection, schedule: Q01DX009 (ip), vehicle: saline) was 100 % of control and the T/C (dose: 12.5 mg/kg/injection, schedule: Q01DX009 (ip), vehicle: saline) was 110 % of control. For the same compound, the T/C (dose: 25.0 mg/kg/injection, schedule: Q01DX009 (ip), vehicle: saline) was 100 % of control, the T/C [2] was 108 % of control and the T/C [3] was 117 % of control. For the same compound, the T/C [4] was 110 % of control.
For `O=C(/C=C/c1cccs1)c1ccc(O)c(C(=O)O)c1`, the T/C (dose: 25.0 mg/kg/injection, schedule: Q01DX009 (ip), vehicle: saline with Tween-80) was 96 % of control, the T/C (dose: 50.0 mg/kg/injection, schedule: Q01DX009 (ip), vehicle: saline with Tween-80) was 105 % of control and the T/C (dose: 100.0 mg/kg/injection, schedule: Q01DX009 (ip), vehicle: saline with Tween-80) was 103 % of control.
For `COC1=C(OC)C(=O)C([Si](C)(C)C)=C(CO)C1=O`, the T/C (dose: 7.5 mg/kg/injection, schedule: Q01DX005 (ip), vehicle: saline with Tween-80) was 103 % of control and the T/C (dose: 15.0 mg/kg/injection, schedule: Q01DX005 (ip), vehicle: saline with Tween-80) was 105 % of control.
With `NC(=S)N/N=C/c1[nH]c2cc(Br)c(Br)cc2c1Br` the T/C (dose: 100.0 mg/kg/injection, schedule: Q01DX001 (ip), vehicle: saline with Tween-80) was 91 % of control, the T/C (dose: 200.0 mg/kg/injection, schedule: Q01DX001 (ip), vehicle: saline with Tween-80) was 91 % of control and the T/C (dose: 400.0 mg/kg/injection, schedule: Q01DX001 (ip), vehicle: saline with Tween-80) was 98 % of control.
For `CN1CC(=O)NC2(CCCC2)C1=O`, the T/C (dose: 37.5 mg/kg/injection, schedule: Q04DX002 (ip), vehicle: Klucel (hydroxypropylcellulose) (HPC)) was 102 % of control, the T/C (dose: 75.0 mg/kg/injection, schedule: Q04DX002 (ip), vehicle: Klucel (hydroxypropylcellulose) (HPC)) was 101 % of control and the T/C (dose: 150.0 mg/kg/injection, schedule: Q04DX002 (ip), vehicle: Klucel (hydroxypropylcellulose) (HPC)) was 99 % of control. For the same compound, the T/C (dose: 300.0 mg/kg/injection, schedule: Q04DX002 (ip), vehicle: Klucel (hydroxypropylcellulose) (HPC)) was 105 % of control.

— PubChem BioAssay AID330 (DTP/NCI, 2004)
